Legend:
human Gal-3 (hGal-3) = human Gal-3 (hGal-3) (Homo sapiens (Human), UniProt P17931); assay: Competitive binding assay: binding of biotinylated hGal-3 to microplate-adsorbed asialofetuin (ASF); settings: Activity on hGal-3; mean values of several measurements
Summary of the method: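 Biotinylated hGal-3 (300-1000 ng/mL) bound to ASF-coated wells with serially diluted compound, 3 h at 4° C. After washing, bound protein was detected with streptavidin-peroxidase (80 ng/mL, 1 h, 4° C) and ABTS substrate; IC50 values are means of several measurements.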

human Gal-1 (hGal-1) = assay: Competitive binding assay: binding of biotinylated hGal-1 to microplate-adsorbed asialofetuin (ASF); settings: Activities on hGal-1; mean values of several measurements
Summary of the method: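 Compounds diluted in DMSO competed with biotinylated hGal-3 or hGal-1 (300-1000 ng/mL) for binding to plate-adsorbed asialofetuin for 3 h at 4° C. Bound galectin was detected with streptavidin-peroxidase (80 ng/mL, 1 h, 4° C) and ABTS substrate; IC50 reported as mean of several measurements.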

Sequence of human Gal-3 (hGal-3) (P17931 whole entry): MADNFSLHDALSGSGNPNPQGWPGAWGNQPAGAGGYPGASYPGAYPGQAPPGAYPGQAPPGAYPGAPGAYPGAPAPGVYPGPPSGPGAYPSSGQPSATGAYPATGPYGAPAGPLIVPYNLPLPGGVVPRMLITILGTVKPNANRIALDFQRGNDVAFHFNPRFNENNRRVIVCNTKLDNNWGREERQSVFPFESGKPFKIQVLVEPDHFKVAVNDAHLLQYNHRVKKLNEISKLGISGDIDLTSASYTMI
Sequence of human Gal-1 (hGal-1) (P09382 2-135 limits assumed): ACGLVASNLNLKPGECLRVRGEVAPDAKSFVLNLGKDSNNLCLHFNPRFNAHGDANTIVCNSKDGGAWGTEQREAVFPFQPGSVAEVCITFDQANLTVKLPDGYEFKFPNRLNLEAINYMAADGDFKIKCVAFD

| Structure (SMILES) | IC50 (human Gal-3 (hGal-3)) [nM] | IC50 (human Gal-1 (hGal-1)) [nM] |
| --- | --- | --- |
| CO[C@@H]1[C@@H](n2cc(-c3cc(F)c(F)c(F)c3)nn2)[C@@H](O)[C@@H](CO)O[C@@H]1Cc1cc(C2CCN(S(=O)(=O)N3CCCCC3)CC2)on1 [Example 3.63, (2R,3R,4S,5R,6R)-2-(hydroxymethyl)-5-methoxy-6-((5-(1-(piperidin-1-ylsulfonyl)piperidin-4-yl)isoxazol-3-yl)methyl)-4-(4-(3,4,5-trifluorophenyl)-1H-1,2,3-triazol-1-yl)tetrahydro-2H-pyran-3-ol] | 69 | 560 |
| CO[C@@H]1[C@@H](n2cc(-c3cc(F)c(F)c(F)c3)nn2)[C@@H](O)[C@@H](CO)O[C@@H]1Cc1cc(C2CCN(S(=O)(=O)N3CCCC3)CC2)on1 [Example 3.64, (2R,3R,4S,5R,6R)-2-(hydroxymethyl)-5-methoxy-6-((5-(1-(pyrrolidin-1-ylsulfonyl)piperidin-4-yl)isoxazol-3-yl)methyl)-4-(4-(3,4,5-trifluorophenyl)-1H-1,2,3-triazol-1-yl)tetrahydro-2H-pyran-3-ol] | 25 | 760 |
| CO[C@@H]1[C@@H](n2cc(-c3cc(F)c(F)c(F)c3)nn2)[C@@H](O)[C@@H](CO)O[C@@H]1Cc1cc(C2CCN(S(=O)(=O)N3CCC(F)(F)CC3)CC2)on1 [Example 3.65, (2R,3R,4S,5R,6R)-6-((5-(1-((4,4-difluoropiperidin-1-yl)sulfonyl)piperidin-4-yl)isoxazol-3-yl)methyl)-2-(hydroxymethyl)-5-methoxy-4-(4-(3,4,5-trifluorophenyl)-1H-1,2,3-triazol-1-yl)tetrahydro-2H-pyran-3-ol] | 45 | 1880 |
| CO[C@@H]1[C@@H](n2cc(-c3cc(F)c(F)c(F)c3)nn2)[C@@H](O)[C@@H](CO)O[C@@H]1Cc1cc(C2CCN(C(=O)N3CCCCC3)CC2)on1 [Example 3.66, (4-(3-(((2R,3R,4S,5R,6R)-5-hydroxy-6-(hydroxymethyl)-3-methoxy-4-(4-(3,4,5-trifluorophenyl)-1H-1,2,3-triazol-1-yl)tetrahydro-2H-pyran-2-yl)methyl)isoxazol-5-yl)piperidin-1-yl)(piperidin-1-yl)methanone] | 140 | 3590 |
| CO[C@@H]1[C@@H](n2cc(-c3cc(F)c(F)c(F)c3)nn2)[C@@H](O)[C@@H](CO)O[C@@H]1Cc1cc(C2CCN(C(=O)N3CCCC3)CC2)on1 [Example 3.67, (4-(3-(((2R,3R,4S,5R,6R)-5-hydroxy-6-(hydroxymethyl)-3-methoxy-4-(4-(3,4,5-trifluorophenyl)-1H-1,2,3-triazol-1-yl)tetrahydro-2H-pyran-2-yl)methyl)isoxazol-5-yl)piperidin-1-yl)(pyrrolidin-1-yl)methanone] | 69 | 920 |
| CCN(C)C(=O)N1CCC(c2cc(C[C@H]3O[C@H](CO)[C@H](O)[C@H](n4cc(-c5cc(F)c(F)c(F)c5)nn4)[C@H]3OC)no2)CC1 [Example 3.68, N-ethyl-4-(3-(((2R,3R,4S,5R,6R)-5-hydroxy-6-(hydroxymethyl)-3-methoxy-4-(4-(3,4,5-trifluorophenyl)-1H-1,2,3-triazol-1-yl)tetrahydro-2H-pyran-2-yl)methyl)isoxazol-5-yl)-N-methylpiperidine-1-carboxamide] | 110 | 2460 |
| CO[C@@H]1[C@@H](n2cc(-c3cc(F)c(F)c(F)c3)nn2)[C@@H](O)[C@@H](CO)O[C@@H]1Cc1cc(C2CCN(C(=O)N(C)C)CC2)on1 [Example 3.69, 4-(3-(((2R,3R,4S,5R,6R)-5-hydroxy-6-(hydroxymethyl)-3-methoxy-4-(4-(3,4,5-trifluorophenyl)-1H-1,2,3-triazol-1-yl)tetrahydro-2H-pyran-2-yl)methyl)isoxazol-5-yl)-N,N-dimethylpiperidine-1-carboxamide] | 170 | 2470 |
| CO[C@@H]1[C@@H](n2cc(-c3cc(F)c(F)c(F)c3)nn2)[C@@H](O)[C@@H](CO)O[C@@H]1Cc1cc(C2CCN(C(=O)N3CCN(C)CC3)CC2)on1 [Example 3.70, (4-(3-(((2R,3R,4S,5R,6R)-5-hydroxy-6-(hydroxymethyl)-3-methoxy-4-(4-(3,4,5-trifluorophenyl)-1H-1,2,3-triazol-1-yl)tetrahydro-2H-pyran-2-yl)methyl)isoxazol-5-yl)piperidin-1-yl)(4-methylpiperazin-1-yl)methanone] | 84 | 820 |
| CO[C@@H]1[C@@H](n2cc(-c3cc(F)c(F)c(F)c3)nn2)[C@@H](O)[C@@H](CO)O[C@@H]1Cn1cc(-c2cccc(F)c2)nn1 [Example 4.01, (2R,3R,4S,5R,6R)-6-((4-(3-fluorophenyl)-1H-1,2,3-triazol-1-yl)methyl)-2-(hydroxymethyl)-5-methoxy-4-(4-(3,4,5-trifluorophenyl)-1H-1,2,3-triazol-1-yl)tetrahydro-2H-pyran-3-ol] | 1240 | 13500 |
| CO[C@@H]1[C@@H](n2cc(-c3cc(F)c(F)c(F)c3)nn2)[C@@H](O)[C@@H](CO)O[C@@H]1Cn1cc(-c2ccc3[nH]c(=O)oc3c2)nn1 [Example 4.02, 6-(1-(((2R,3R,4S,5R,6R)-5-hydroxy-6-(hydroxymethyl)-3-methoxy-4-(4-(3,4,5-trifluorophenyl)-1H-1,2,3-triazol-1-yl)tetrahydro-2H-pyran-2-yl)methyl)-1H-1,2,3-triazol-4-yl)benzo[d]oxazol-2(3H)-one] | 690 | 20300 |
| CO[C@@H]1[C@@H](n2cc(-c3cc(F)c(F)c(F)c3)nn2)[C@@H](O)[C@@H](CO)O[C@@H]1Cc1cn(C2CCOCC2)nn1 [Example 4.03, (2R,3R,4S,5R,6R)-2-(hydroxymethyl)-5-methoxy-6-((1-(tetrahydro-2H-pyran-4-yl)-1H-1,2,3-triazol-4-yl)methyl)-4-(4-(3,4,5-trifluorophenyl)-1H-1,2,3-triazol-1-yl)tetrahydro-2H-pyran-3-ol] | 76 | 1760 |
| CO[C@@H]1[C@@H](n2cc(-c3cc(F)c(F)c(F)c3)nn2)[C@@H](O)[C@@H](CO)O[C@@H]1Cn1cc(C2CCN(C(C)=O)CC2)nn1 [Example 4.04, 1-(4-(1-(((2R,3R,4S,5R,6R)-5-hydroxy-6-(hydroxymethyl)-3-methoxy-4-(4-(3,4,5-trifluorophenyl)-1H-1,2,3-triazol-1-yl)tetrahydro-2H-pyran-2-yl)methyl)-1H-1,2,3-triazol-4-yl)piperidin-1-yl)ethan-1-one] | 44 | 700 |
| CO[C@@H]1[C@@H](n2cc(-c3cc(F)c(F)c(F)c3)nn2)[C@@H](O)[C@@H](CO)O[C@@H]1Cc1cn(C2CCN(C(=O)OC(C)(C)C)CC2)nn1 [Example 4.05, tert-butyl 4-(4-(((2R,3R,4S,5R,6R)-5-hydroxy-6-(hydroxymethyl)-3-methoxy-4-(4-(3,4,5-trifluorophenyl)-1H-1,2,3-triazol-1-yl)tetrahydro-2H-pyran-2-yl)methyl)-1H-1,2,3-triazol-1-yl)piperidine-1-carboxylate] | 35 | 140 |
| CO[C@@H]1[C@@H](n2cc(-c3cc(F)c(F)c(F)c3)nn2)[C@@H](O)[C@@H](CO)O[C@@H]1Cc1cn(C2CCN(C(C)=O)CC2)nn1 [Example 4.06, 1-(4-(4-(((2R,3R,4S,5R,6R)-5-hydroxy-6-(hydroxymethyl)-3-methoxy-4-(4-(3,4,5-trifluorophenyl)-1H-1,2,3-triazol-1-yl)tetrahydro-2H-pyran-2-yl)methyl)-1H-1,2,3-triazol-1-yl)piperidin-1-yl)ethan-1-one] | 52 | 160 |
| CO[C@@H]1[C@@H](n2cc(-c3cc(F)c(F)c(F)c3)nn2)[C@@H](O)[C@@H](CO)O[C@@H]1Cc1cn(C2CCN(S(C)(=O)=O)CC2)nn1 [Example 4.07, (2R,3R,4S,5R,6R)-2-(hydroxymethyl)-5-methoxy-6-((1-(1-(methylsulfonyl)piperidin-4-yl)-1H-1,2,3-triazol-4-yl)methyl)-4-(4-(3,4,5-trifluorophenyl)-1H-1,2,3-triazol-1-yl)tetrahydro-2H-pyran-3-ol] | 12 | 100 |
| CO[C@@H]1[C@@H](n2cc(-c3cc(F)c(F)c(F)c3)nn2)[C@@H](O)[C@@H](CO)O[C@@H]1Cc1cn(C2CCN(C(=O)NC(C)(C)C)CC2)nn1 [Example 4.08, N-(tert-butyl)-4-(4-(((2R,3R,4S,5R,6R)-5-hydroxy-6-(hydroxymethyl)-3-methoxy-4-(4-(3,4,5-trifluorophenyl)-1H-1,2,3-triazol-1-yl)tetrahydro-2H-pyran-2-yl)methyl)-1H-1,2,3-triazol-1-yl)piperidine-1-carboxamide] | 10 | 67 |
| CCCS(=O)(=O)N1CCC(n2cc(C[C@H]3O[C@H](CO)[C@H](O)[C@H](n4cc(-c5cc(F)c(F)c(F)c5)nn4)[C@H]3OC)nn2)CC1 [Example 4.09, (2R,3R,4S,5R,6R)-2-(hydroxymethyl)-5-methoxy-6-((1-(1-(propylsulfonyl)piperidin-4-yl)-1H-1,2,3-triazol-4-yl)methyl)-4-(4-(3,4,5-trifluorophenyl)-1H-1,2,3-triazol-1-yl)tetrahydro-2H-pyran-3-ol] | 13 | 100 |
| CO[C@@H]1[C@@H](n2cc(-c3cc(F)c(F)c(F)c3)nn2)[C@@H](O)[C@@H](CO)O[C@@H]1Cc1cn(C2CCN(S(=O)(=O)C(C)C)CC2)nn1 [Example 4.10, (2R,3R,4S,5R,6R)-2-(hydroxymethyl)-6-((1-(1-(isopropylsulfonyl)piperidin-4-yl)-1H-1,2,3-triazol-4-yl)methyl)-5-methoxy-4-(4-(3,4,5-trifluorophenyl)-1H-1,2,3-triazol-1-yl)tetrahydro-2H-pyran-3-ol] | 25 | 270 |
